Source: patent publication US10526316B2, “Quinoxaline and pyridopyrazine derivatives as PI3Kβ inhibitors” (Janssen Pharmaceutica NV, priority 2015, dated 2020)
Where two headings read alike, the source gives them in different places. Each block holds one molecule with its values, some of them ahead of it.

Experiments:
PI3Kβ = molecular target: T1, PI3Kβ (Homo sapiens, UniProt P42338); test: Enzyme binding assay (KINOMEscan, DiscoveRx); details: PIK3Cβ_h, read-out: Kd PIK3Cβ_h
T1 construct: purchased DiscoveRx Corporation, San Diego (contract service, KINOMEscan)
T1 sequence (P42338 whole entry): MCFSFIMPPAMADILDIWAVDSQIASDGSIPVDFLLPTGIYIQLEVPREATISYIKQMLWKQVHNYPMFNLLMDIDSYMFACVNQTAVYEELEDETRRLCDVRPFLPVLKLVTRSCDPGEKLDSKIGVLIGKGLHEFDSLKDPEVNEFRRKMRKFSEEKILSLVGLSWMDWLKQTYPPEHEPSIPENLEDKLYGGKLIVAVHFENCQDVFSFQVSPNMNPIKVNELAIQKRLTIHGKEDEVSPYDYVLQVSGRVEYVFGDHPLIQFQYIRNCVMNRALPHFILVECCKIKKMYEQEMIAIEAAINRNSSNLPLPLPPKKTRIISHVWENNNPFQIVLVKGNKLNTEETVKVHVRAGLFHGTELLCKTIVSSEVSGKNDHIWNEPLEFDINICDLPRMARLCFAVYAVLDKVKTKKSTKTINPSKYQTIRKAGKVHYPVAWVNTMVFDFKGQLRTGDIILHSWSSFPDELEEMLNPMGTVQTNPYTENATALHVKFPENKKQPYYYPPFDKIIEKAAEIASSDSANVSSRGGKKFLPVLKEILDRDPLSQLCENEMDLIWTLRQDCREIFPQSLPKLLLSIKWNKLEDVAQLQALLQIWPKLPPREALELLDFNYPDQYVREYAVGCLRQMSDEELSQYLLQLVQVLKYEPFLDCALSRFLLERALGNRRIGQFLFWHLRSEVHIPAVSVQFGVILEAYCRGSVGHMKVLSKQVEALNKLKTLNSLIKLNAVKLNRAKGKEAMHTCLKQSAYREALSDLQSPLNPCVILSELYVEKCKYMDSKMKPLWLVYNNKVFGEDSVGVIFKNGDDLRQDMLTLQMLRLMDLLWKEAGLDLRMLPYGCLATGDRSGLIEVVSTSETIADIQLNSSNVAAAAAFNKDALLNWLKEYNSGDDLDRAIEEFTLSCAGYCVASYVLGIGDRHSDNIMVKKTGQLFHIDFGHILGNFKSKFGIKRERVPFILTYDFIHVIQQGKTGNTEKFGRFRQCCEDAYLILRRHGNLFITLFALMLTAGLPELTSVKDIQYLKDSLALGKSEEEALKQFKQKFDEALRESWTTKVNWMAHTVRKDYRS
Method in brief: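 Kinase binding affinities were measured with KINOMEscan technology. Results are given as Kd, the inhibitor binding constant, in nM.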

PI3Kδ = molecular target: T2, PI3Kδ (Homo sapiens, UniProt O00329); test: Enzyme binding assay (KINOMEscan, DiscoveRx); details: PIK3Cδ_h
T2 construct: purchased DiscoveRx Corporation, San Diego (contract service, KINOMEscan)
T2 sequence (O00329 1-1044): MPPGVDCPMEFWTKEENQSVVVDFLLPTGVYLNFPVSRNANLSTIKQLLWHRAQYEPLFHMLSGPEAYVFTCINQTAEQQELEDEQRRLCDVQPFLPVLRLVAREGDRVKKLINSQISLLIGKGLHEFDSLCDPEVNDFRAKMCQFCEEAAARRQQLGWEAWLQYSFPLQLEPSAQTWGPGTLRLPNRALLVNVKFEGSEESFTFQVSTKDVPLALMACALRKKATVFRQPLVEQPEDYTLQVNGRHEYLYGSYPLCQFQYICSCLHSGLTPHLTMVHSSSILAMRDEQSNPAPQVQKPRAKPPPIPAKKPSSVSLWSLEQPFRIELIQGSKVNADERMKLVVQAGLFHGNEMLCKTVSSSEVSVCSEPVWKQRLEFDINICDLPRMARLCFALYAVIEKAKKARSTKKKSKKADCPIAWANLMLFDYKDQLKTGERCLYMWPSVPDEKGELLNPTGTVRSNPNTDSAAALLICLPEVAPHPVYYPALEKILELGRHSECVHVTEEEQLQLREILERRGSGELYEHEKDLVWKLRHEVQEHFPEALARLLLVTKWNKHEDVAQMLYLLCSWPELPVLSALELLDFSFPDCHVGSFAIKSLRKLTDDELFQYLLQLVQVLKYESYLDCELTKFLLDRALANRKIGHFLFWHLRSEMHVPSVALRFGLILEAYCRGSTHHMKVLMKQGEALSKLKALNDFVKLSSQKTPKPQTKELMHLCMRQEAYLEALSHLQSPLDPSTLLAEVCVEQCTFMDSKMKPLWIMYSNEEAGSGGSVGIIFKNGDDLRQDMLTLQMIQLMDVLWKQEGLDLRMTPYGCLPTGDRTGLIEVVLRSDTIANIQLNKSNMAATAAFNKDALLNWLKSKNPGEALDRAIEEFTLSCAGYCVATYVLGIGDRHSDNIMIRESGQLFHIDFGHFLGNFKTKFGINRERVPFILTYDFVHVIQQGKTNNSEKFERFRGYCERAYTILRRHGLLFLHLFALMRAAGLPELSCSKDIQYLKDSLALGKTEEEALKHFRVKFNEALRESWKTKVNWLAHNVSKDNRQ
Method in brief: (§1)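 Binding affinities were measured on the KINOMEscan platform.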

kinase enzymes [1] = molecular target: T3, kinase enzymes (Homo sapiens, UniProt P42336); test: Enzyme binding assay (KINOMEscan, DiscoveRx), further kinases of Table A; details: PIK3Cα_h
T3 construct: purchased DiscoveRx Corporation, San Diego (contract service, KINOMEscan)
T3 sequence (P42336 whole entry): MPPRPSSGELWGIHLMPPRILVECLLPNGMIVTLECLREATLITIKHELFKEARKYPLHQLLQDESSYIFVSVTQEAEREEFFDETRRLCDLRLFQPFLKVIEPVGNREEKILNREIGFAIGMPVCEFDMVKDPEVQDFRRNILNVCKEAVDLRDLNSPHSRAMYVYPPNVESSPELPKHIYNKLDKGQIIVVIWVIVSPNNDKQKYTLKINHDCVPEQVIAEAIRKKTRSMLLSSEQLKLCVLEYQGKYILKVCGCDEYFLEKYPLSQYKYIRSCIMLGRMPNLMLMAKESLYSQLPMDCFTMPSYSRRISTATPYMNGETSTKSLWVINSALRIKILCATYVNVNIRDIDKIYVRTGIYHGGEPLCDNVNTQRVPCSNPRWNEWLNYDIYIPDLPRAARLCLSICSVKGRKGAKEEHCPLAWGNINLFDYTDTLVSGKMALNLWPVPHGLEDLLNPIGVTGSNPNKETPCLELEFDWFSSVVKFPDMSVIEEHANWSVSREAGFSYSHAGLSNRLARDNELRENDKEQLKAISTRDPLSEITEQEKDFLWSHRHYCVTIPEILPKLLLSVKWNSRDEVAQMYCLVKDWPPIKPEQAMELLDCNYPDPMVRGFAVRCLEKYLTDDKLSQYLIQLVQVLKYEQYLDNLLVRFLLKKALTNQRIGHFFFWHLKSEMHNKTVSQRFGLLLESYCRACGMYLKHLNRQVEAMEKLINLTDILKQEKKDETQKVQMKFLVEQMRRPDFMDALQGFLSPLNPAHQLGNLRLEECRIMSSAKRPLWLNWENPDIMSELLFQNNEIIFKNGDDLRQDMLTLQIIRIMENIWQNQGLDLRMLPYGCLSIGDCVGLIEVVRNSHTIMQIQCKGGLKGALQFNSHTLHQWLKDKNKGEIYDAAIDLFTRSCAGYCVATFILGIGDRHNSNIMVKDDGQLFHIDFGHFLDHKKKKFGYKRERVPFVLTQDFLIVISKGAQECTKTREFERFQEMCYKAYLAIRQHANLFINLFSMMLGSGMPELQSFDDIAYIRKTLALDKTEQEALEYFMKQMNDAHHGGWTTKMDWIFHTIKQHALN
Method in brief: as §1

kinase enzymes [2] = molecular target: T4, kinase enzymes (Homo sapiens, UniProt P42345); test: as above; details: MTOR_h
T4 construct: purchased DiscoveRx Corporation, San Diego (contract service, KINOMEscan)
Method in brief: as §1

kinase enzymes [3] = molecular target: T5, kinase enzymes (Homo sapiens, UniProt P48736); test: as above; details: PIK3Cγ_h
T5 construct: purchased DiscoveRx Corporation, San Diego (contract service, KINOMEscan)
T5 sequence (P48736 whole entry): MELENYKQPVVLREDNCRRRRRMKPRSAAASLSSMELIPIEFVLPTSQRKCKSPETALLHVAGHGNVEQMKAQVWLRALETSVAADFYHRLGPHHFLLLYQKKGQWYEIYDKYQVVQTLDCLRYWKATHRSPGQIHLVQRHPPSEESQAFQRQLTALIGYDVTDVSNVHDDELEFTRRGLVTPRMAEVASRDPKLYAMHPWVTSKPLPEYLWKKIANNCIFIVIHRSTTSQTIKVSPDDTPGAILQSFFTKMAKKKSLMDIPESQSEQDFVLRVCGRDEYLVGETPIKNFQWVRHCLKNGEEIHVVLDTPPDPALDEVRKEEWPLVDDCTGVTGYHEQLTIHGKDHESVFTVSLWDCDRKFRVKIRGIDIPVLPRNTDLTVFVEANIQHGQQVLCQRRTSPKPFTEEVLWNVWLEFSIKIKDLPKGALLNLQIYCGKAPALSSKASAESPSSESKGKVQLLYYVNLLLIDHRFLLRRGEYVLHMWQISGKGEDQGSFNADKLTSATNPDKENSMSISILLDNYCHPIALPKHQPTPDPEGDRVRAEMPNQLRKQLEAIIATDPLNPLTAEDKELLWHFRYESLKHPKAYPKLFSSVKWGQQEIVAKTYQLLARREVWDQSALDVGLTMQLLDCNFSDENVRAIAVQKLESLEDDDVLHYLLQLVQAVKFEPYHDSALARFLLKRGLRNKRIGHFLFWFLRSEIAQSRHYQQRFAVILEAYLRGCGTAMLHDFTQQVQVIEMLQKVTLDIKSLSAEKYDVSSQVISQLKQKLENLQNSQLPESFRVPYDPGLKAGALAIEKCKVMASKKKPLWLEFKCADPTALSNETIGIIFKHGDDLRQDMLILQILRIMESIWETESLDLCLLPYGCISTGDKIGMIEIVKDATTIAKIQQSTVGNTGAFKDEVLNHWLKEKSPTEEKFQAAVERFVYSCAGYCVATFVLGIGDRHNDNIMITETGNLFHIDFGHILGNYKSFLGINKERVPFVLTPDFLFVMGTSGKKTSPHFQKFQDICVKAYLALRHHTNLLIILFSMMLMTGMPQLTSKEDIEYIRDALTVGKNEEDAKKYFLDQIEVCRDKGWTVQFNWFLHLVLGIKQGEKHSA
Method in brief: as §1

[4] = test system: Akt phosphorylated at Ser473 in PC-3 cells; test: Cellular assay: phosphorylation of Akt at Ser473 in PC-3 cells (MSD ELISA); type: cell-based; details: PC-3 cells, 60 min compound incubation, MSD ELISA, read-out: IC50 pAkt_S473
Method in brief: (§2)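 PC-3 cells were exposed to compound or 0.3% DMSO for 60 min at 37° C, 5% CO2, then lysed in ice-cold buffer. Phospho-Akt was captured on site-specific antibody-coated plates and detected with Sulfo-tag anti-total Akt by electrochemiluminescence. IC50 values came from five-concentration response curves.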

[5] = test system: Akt phosphorylated at Thr308 in PC-3 cells; test: Cellular assay: phosphorylation of Akt at Thr308 in PC-3 cells (MSD ELISA); type: cell-based; details: PC-3 cells, 60 min compound incubation, MSD ELISA, read-out: IC50 pAkt_Thr308
Method in brief: as §2

SMILES: C[C@H](CO)NCc1cc(F)cc(N2CCCC2c2cc(C(=O)N(C)C)cc3ncc(N4CCOCC4)nc23)c1 (mixture of isomers) [Compound 48]
- Kd (PI3Kβ): 28 nM
- Kd (PI3Kδ): 724 nM
- Kd (kinase enzymes [1]): 2460 nM
- Kd (kinase enzymes [2]): > 30.2 µM
- Kd (kinase enzymes [3]): 14.8 µM
- IC50 ([4]; Homo sapiens, PC-3, 1 h): > 513 nM
- IC50 ([5]; Homo sapiens, PC-3, 1 h): ~457 nM
- melting point: 80 °C

SMILES: CC(Oc1cc(F)cc(F)c1)c1cc(C(=O)N2CCOCC2)cc2ncc(N3CCO[C@H](C)C3)nc12 (mixture of isomers) [Compound 56]
- Kd (PI3Kβ): 13 nM
- Kd (PI3Kδ): 2630 nM
- Kd (kinase enzymes [1]): 6610 nM
- Kd (kinase enzymes [2]): > 30.2 µM
- Kd (kinase enzymes [3]): > 30.2 µM
- IC50 ([4]; Homo sapiens, PC-3, 1 h): > 513 nM
- IC50 ([5]; Homo sapiens, PC-3, 1 h): 148 nM
- melting point: 55 °C

SMILES: O=C(c1cc(C2CCCN2c2cc(F)cc(F)c2)c2nc(N3CCOCC3)cnc2c1)N1CCC[C@H]1CO (mixture of isomers) [Compound 64]
- Kd (PI3Kβ): 1 nM
- Kd (PI3Kδ): 58 nM
- Kd (kinase enzymes [1]): 224 nM
- Kd (kinase enzymes [2]): 15.1 µM
- Kd (kinase enzymes [3]): 1.29 µM
- IC50 ([4]; Homo sapiens, PC-3, 1 h): 13 nM
- IC50 ([5]; Homo sapiens, PC-3, 1 h): 6 nM
- melting point: 80 °C

SMILES: C[C@H](CO)NCc1ccc(F)cc1N1CCCC1c1cc(C(=O)N(C)C)cc2ncc(N3CCOCC3)nc12 (mixture of isomers) [Compound 67]
- Kd (PI3Kβ): 18 nM
- Kd (PI3Kδ): 617 nM
- Kd (kinase enzymes [1]): 2460 nM
- Kd (kinase enzymes [2]): > 30.2 µM
- Kd (kinase enzymes [3]): 20.9 µM
- IC50 ([4]; Homo sapiens, PC-3, 1 h): 195 nM
- IC50 ([5]; Homo sapiens, PC-3, 1 h): 166 nM
- melting point: 80 °C

SMILES: CN[C@H]1CCN(C(=O)c2cc(C(C)Nc3ccc(F)c(F)c3)c3nc(N4CCOCC4)cnc3c2)C1 (mixture of isomers) [Compound 365]
- Kd (PI3Kβ): 1 nM
- Kd (PI3Kδ): 117 nM
- Kd (kinase enzymes [1]): 2090 nM
- Kd (kinase enzymes [2]): > 30.2 µM
- Kd (kinase enzymes [3]): 2.88 µM
- IC50 ([4]; Homo sapiens, PC-3, 1 h): 20 nM
- IC50 ([5]; Homo sapiens, PC-3, 1 h): 13 nM
- melting point: 80 °C

SMILES: CC(Nc1cc(F)cc(F)c1)c1cc(C(=O)N2CCOCC2)cc2ncc(N3CCOCC3)nc12 (single isomer, unassigned) [Compound 8]
- Kd (PI3Kβ): 1 nM
- Kd (PI3Kδ): 109 nM
- Kd (kinase enzymes [1]): 396 nM
- Kd (kinase enzymes [2]): 20.9 µM
- Kd (kinase enzymes [3]): 3.86 µM
- IC50 [4]: 25 nM
- IC50 [5]: 20 nM
- melting point: 100 °C

SMILES: CC(Nc1cccc(F)c1)c1cc(C(=O)N2CCC[C@H]2CO)cc2ncc(N3CCOCC3)nc12 (single isomer, unassigned) [Compound 115]
- Kd (PI3Kβ): 2 nM
- Kd (PI3Kδ): 324 nM
- Kd (kinase enzymes [1]): 1660 nM
- Kd (kinase enzymes [2]): > 30.2 µM
- IC50 [4]: 66 nM
- IC50 [5]: 31 nM
- melting point: 327 °C

SMILES: CC(Nc1cccc(F)c1)c1cc(C(=O)N2CCC[C@H](O)C2)cc2ncc(N3CCOCC3)nc12 (single isomer, unassigned) [Compound 320b]
- Kd (PI3Kβ): 69 nM
- Kd (PI3Kδ): 5130 nM
- Kd (kinase enzymes [1]): 11500 nM
- Kd (kinase enzymes [2]): > 30.2 µM
- Kd (kinase enzymes [3]): > 30.2 µM
- melting point: 136 °C

SMILES: CC(Nc1cccc(F)c1)c1cc(C(=O)N2CC[C@@H](O)C2)cc2ncc(N3CCOCC3)nc12 (single isomer, unassigned) [Compound 321b]
- Kd (PI3Kβ): 166 nM
- Kd (PI3Kδ): 7410 nM
- Kd (kinase enzymes [1]): 18600 nM
- Kd (kinase enzymes [2]): > 30.2 µM
- Kd (kinase enzymes [3]): > 30.2 µM
- melting point: 128 °C

Further lines, results first:

- Kd (PI3Kβ): 7 nM
- Kd (PI3Kδ): 724 nM
- Kd (kinase enzymes [1]): 2040 nM
- Kd (kinase enzymes [2]): 10.5 µM
- Kd (kinase enzymes [3]): 7.94 µM
- melting point: 115 °C
SMILES: Cc1ccc(NC(C)c2cc(C(=O)NCCN(C)C)cc3ncc(N4CCOCC4)nc23)cc1F (single isomer, unassigned) [Compound 407a]

- Kd (PI3Kβ): 339 nM
- Kd (PI3Kδ): 2950 nM
- Kd (kinase enzymes [1]): 4370 nM
- Kd (kinase enzymes [2]): > 30.2 µM
- Kd (kinase enzymes [3]): 3.8 µM
- melting point: 105 °C
SMILES: Cc1ccc(NC(C)c2cc(C(=O)NCCN(C)C)cc3ncc(N4CCOCC4)nc23)cc1F (single isomer, unassigned) [Compound 407b]

- Kd (PI3Kβ): 3 nM
- Kd (PI3Kδ): 331 nM
- Kd (kinase enzymes [1]): 1440 nM
- Kd (kinase enzymes [2]): 26.3 µM
- Kd (kinase enzymes [3]): 4.27 µM
- melting point: 127 °C
SMILES: [2H]C([2H])(O)C([2H])([2H])NC(=O)c1cc(C(C)Nc2cccc(F)c2)c2nc(N3CCOCC3)cnc2c1 (single isomer, unassigned) [Compound 408a]
